Consider one compound from ChEMBL document CHEMBL5331090, “Modes of action insights from the crystallographic structures of retinoic acid receptor-related orphan receptor-γt (RORγt)” (Eur J Med Chem, 2023).

Test [1] in a line: Antagonist activity at RORgammat LBD (unknown origin)/NCoR2 (unknown origin) interaction. More on the design: species or system Homo sapiens.
Test [2] deals with T1, Nuclear receptor ROR-gamma (Homo sapiens, UniProt P51449).
T1 sequence (P51449 whole entry): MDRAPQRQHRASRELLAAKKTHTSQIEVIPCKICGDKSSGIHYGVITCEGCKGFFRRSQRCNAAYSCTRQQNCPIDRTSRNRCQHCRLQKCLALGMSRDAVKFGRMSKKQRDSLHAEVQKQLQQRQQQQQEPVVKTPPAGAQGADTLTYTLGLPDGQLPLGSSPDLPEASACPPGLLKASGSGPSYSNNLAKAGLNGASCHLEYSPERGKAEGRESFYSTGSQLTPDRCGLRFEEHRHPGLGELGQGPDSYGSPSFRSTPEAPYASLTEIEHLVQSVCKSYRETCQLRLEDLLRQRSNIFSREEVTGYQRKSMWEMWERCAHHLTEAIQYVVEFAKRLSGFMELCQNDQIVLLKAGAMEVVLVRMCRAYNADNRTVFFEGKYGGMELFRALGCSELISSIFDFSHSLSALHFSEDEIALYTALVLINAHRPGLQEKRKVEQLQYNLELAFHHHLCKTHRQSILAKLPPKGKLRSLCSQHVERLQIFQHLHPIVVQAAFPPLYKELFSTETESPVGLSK
Put plainly: Antagonist activity at RORgammat LBD (unknown origin) LBD.

Structures are written as SMILES.

With `C[C@H]1O[C@@H](O[C@H]2[C@@H](O)C[C@H](O[C@H]3[C@@H](O)C[C@H](O[C@H]4CC[C@@]5(C)[C@H](CC[C@@H]6[C@@H]5C[C@@H](O)[C@]5(C)[C@@H](C7=CC(=O)OC7)CC[C@]65O)C4)O[C@@H]3C)O[C@@H]2C)C[C@H](O)[C@@H]1O` [DIGOXIN], the IC50 (usually the concentration needed to halve the response being measured) was 3.9 µM in test [1] and 1.8 µM in test [2].
